Assay results taken from the METLIN SMRT retention time set (Domingo-Almenara et al. 2019).

Assay: gradient 5% acetonitrile 3 min, to 50% in 2 min, to 85% in 15 min, held 3 min, 100 µL/min
Conditions: column: Zorbax Extend-C18 2.1 x 50 mm; eluents: water / acetonitrile, 0.1% formic acid
Procedure, shortened: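 Mixtures of ~100 pure standards were chromatographed on a Zorbax Extend-C18 column (2.1 × 50 mm, 1.8 μm) at 100 μL/min using water and acetonitrile, each with 0.1% formic acid. Detection used a quadrupole time-of-flight mass spectrometer in positive and negative ionization mode, and data collection spanned 3 months. Retention time was obtained from adduct peaks picked computationally and each checked manually.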

SMILES	RP-LC retention time
CCCN(C(=O)CC)c1nc(-c2cccc(Cl)c2)cs1	1320 s
COc1ccc(NC(=O)CCc2cccc3[nH]ccc23)cc1OC	755 s
Cc1cccc(-c2nnc(CC(=O)NC3CCCCC3)o2)c1	817 s
CC(=O)N1CCc2cc(N3CC(C(=O)Nc4cc(F)ccc4Cl)CC3=O)ccc21 (stereo unspecified)	749 s
COc1ccc(C2Cn3nnc(-c4nc(-c5ccc(OC(F)(F)F)cc5)no4)c3CO2)cc1 (stereo unspecified)	1240 s
CCc1ccc(NC(=O)N2CCC(c3nc(C(=O)N(C)C)c(C)o3)CC2)cc1	769 s
CN1C[C@@H]2c3ccccc3Oc3ccc(Cl)cc3[C@H]2C1	758 s
Cc1cc(C)n2c(Nc3ccccc3)c(-c3cccc(Cl)c3)nc2n1	1130 s
Cc1cccc(NC(=O)N2CCN(c3cnn4c(C)nnc4c3)CC2)c1	627 s
Cc1ccc(C(=O)N2CCc3[nH]cnc3C23CCCCC3)s1	606 s
C/C=C/c1cc2c(c(=O)o1)C(=O)[C@@H](O)[C@H](C)O2	695 s
COc1cc([C@H]2Oc3cc([C@@H]4Oc5cc(O)cc(O)c5C(=O)[C@@H]4O)ccc3O[C@@H]2CO)ccc1O	754 s
COc1ccc(Nc2c(-c3ccc(OC)cc3)nc3ncccn23)cc1	659 s
COc1ccc(-c2noc(C3CCCN3C(=O)NCc3ccco3)n2)cc1 (stereo unspecified)	855 s
Cc1ccc(Nc2c(-c3ccccc3)nc3cnccn23)c(Br)c1	1040 s
Cc1noc(C)c1CCNC(=O)CN1C(=O)C2CCCCN2c2ccc(S(=O)(=O)N(C)C)cc21 (stereo unspecified)	796 s
CCc1nc(-c2cccc(-c3noc(COc4ccc(OC)cc4)n3)c2)cs1	1270 s
O=S(=O)(c1cc(-c2cc(C(F)(F)F)on2)cs1)N1CCN(c2ccc(Cl)cc2)CC1	1290 s
Cc1ccc(CNS(=O)(=O)c2cc(-c3cc(C(F)(F)F)[nH]n3)sc2C)o1	964 s

Continued, values first:

RP-LC retention time	SMILES
976 s	COc1cccc(S(=O)(=O)N2CCCN(C)c3ccccc32)c1
653 s	CC(C)OCCCN(CC(=O)N1CCNCC1)C(=O)c1ccc(C(F)(F)F)cc1
857 s	O=C(NCc1ccc2c(c1)OCO2)c1ccc2c(c1)N(Cc1ccccc1)C(=O)CO2
693 s	COCCN1CC2(CCN(S(=O)(=O)c3ccc(C)cc3)CC2)C1c1ccccc1 (stereo unspecified)
846 s	Cc1ccc(NS(=O)(=O)c2cc3n(c2)CCN(CC(C)C)C3=O)cc1C
902 s	Nc1cc(S(=O)(=O)N2CCCCCC2)ccc1Cl
856 s	Cc1nc(C2CN(S(=O)(=O)c3cccc(C(F)(F)F)c3)CC23CCOCC3)no1 (stereo unspecified)
770 s	COC(=O)c1c(C)[nH]c(C(=O)N2CCC(CC(=O)NCc3ccc4c(c3)OCO4)CC2)c1C
552 s	O=C(NCCN1CCCC1)c1ccc2nc(-c3ccccc3)cn2c1
893 s	CCc1cccc(NC(=O)C2CCCN(S(=O)(=O)c3cn(C(C)C)cn3)C2)c1 (stereo unspecified)
607 s	Cc1ccccc1NC(=O)CN1C(=O)C2CCCCN2c2ccc(S(=O)(=O)N(C)C)cc21 (stereo unspecified)
866 s	CC(CNC(=O)CC1CCN(S(=O)(=O)c2ccccc2)CC1)c1ccccc1 (stereo unspecified)
901 s	Cc1ccc2c(c1)c1c3n2CCN(c2nc(-c4ccccc4)cs2)C3CCC1 (stereo unspecified)
777 s	COc1ccc(OCC(=O)N2CCC(C(=O)NCCc3csc(-c4cccs4)n3)CC2)cc1
625 s	COCCN1CCC(N2CCN(S(=O)(=O)c3ccc(C(F)(F)F)cc3)CC2)C1=O (stereo unspecified)
696 s	CCc1cc(=O)n(Cc2ccccc2C#N)c(N2CCCC2)n1
784 s	Cc1nnc(N2CCCC(C(=O)NCCc3ccc(Cl)cc3)C2)c2nn(-c3ccccc3)c(C)c12 (stereo unspecified)
